Where two headings read alike, the source gives them in different places.
Legend:
recombinant HTLV-1 IN = biological target: T1, recombinant HTLV-1 IN (Human T-cell leukemia virus 1, UniProt P03362); assay: In vitro integration strand transfer assay with HTLV-1 IN; assay type: biochemical; conditions: for HTLV-1 IN strand transfer activity (No drug = 100): INSTI at 634 nM; for IC50 compared with that of RAL: dose-response strand transfer assays
T1 construct: made in house
Description: We used in vitro strand transfer assays to screen this small molecule library for its ability to inhibit recombinant HTLV-1 IN. The enzyme was incubated with an oligonucleotide vDNA donor mimic in the presence or absence of INSTIs and was allowed to react with a supercoiled plasmid mimicking target DNA. During the screening, the concentration of each compound was adjusted to 634 nM to provide optimal resolution of efficacy between well- and under-performing compounds.
The donor vDNA that mimics the 3′-processed LTR of HTLV-1 or STLV-1 DNA was preassembled by annealing the U5_S20Q_UP and U5_S20Q_B or MarB43_U5_S30UP or MarB43_U5_S30B oligonucleotides, respectively (Supplementary Table 4) in 100 mM Tris pH 7.4, 400 mM NaCl. For HTLV-1 IN, strand transfer reactions were conducted in a solution of 24.3 mM PIPES pH 6.0, 138.4 mM NaCl, 16.6 mM MgCl2, 5.8 μM ZnCl2, 12.7 mM DTT, 0.53 μM donor DNA and 4 μg of HTLV-1 IN[9],[39]. In brief, the reaction was incubated at RT for 15 min in the presence of an INSTI or dimethyl sulfoxide (DMSO) control and the reaction was started by the addition of 300 ng of pGEM-9Zf(-) supercoiled plasmid DNA. The reaction was incubated for 1 h at 37 °C and stopped by adding 0.5% SDS and 25 mM ethylenediaminetetraacetic acid (EDTA), pH 8.0.
Proteins were degraded by incubation with 30 μg of proteinase K (Roche) at 37 °C for 1 h. DNA was precipitated at −20 °C overnight in the presence of ethanol supplemented with 20 μg of glycogen and then resuspended in 1.5× agarose loading dye. The DNA products were separated by electrophoresis through 1.5% agarose gel and stained with ethidium bromide and imaged using the BioRad GelDox XR + imager. The data were analysed and the IC50 calculated as previously described. In brief, the DNA band that corresponds to the concerted integration product was quantified by densitometry in ImageLab 4.1 (Bio-Rad). All experiments were done in triplicate. Quantified data points were fitted to dose–response curves in Prism 9. The cumulative standard deviation for each drug was calculated as an average of the upper limit and lower limit values: Lowerlimit=IC50/10^logSE(IC50) Upperlimit=IC50×10^logSE(IC50)

HIV-1 = HIV-1 infection model; supplementary ref 1; read-out: HIV-1 EC50 ± stdev; cited from earlier work
[1] = Replicate 1, read-out: HTLV-1 IN strand transfer IC50
[2] = Replicate 2, read-out: HTLV-1 IN strand transfer IC50
[3] = Replicate 3, read-out: HTLV-1 IN strand transfer IC50
[4] = integrase strand-transfer drug titration, n = 3, read-out: HTLV-1 IC50 ± stdev

T1 sequence (P03362 1168-1462): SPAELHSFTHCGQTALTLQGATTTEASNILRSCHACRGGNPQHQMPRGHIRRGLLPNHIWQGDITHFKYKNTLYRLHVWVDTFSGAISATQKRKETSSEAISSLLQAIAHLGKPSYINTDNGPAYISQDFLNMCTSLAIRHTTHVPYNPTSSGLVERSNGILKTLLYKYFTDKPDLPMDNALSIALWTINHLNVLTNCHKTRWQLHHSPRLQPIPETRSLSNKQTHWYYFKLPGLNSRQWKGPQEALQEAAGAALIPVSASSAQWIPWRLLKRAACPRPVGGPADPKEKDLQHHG

CN(C)S(=O)(=O)c1cc(O)c(O)c2c1CN(Cc1ccc(F)c(Cl)c1)C2=O [XZ259, 2-(3-chloro-4-fluorobenzyl)-6,7-dihydroxy-N,N-dimethyl-1-oxoisoindoline-4-sulfonamide]
HTLV-1 IN strand transfer activity (No drug = 100) (recombinant HTLV-1 IN; Replicate 1): 63.0889%
HTLV-1 IN strand transfer activity (No drug = 100) (recombinant HTLV-1 IN; Replicate 2): 67.971%
HTLV-1 IN strand transfer activity (No drug = 100) (recombinant HTLV-1 IN; Replicate 3): 68.9907%

[N-]=[N+]=NCc1cccc(C(=O)/C=C(\O)C(=O)O)c1 [XZ319, (Z)-4-(3-(azidomethyl)phenyl)-2-hydroxy-4-oxobut-2-enoic acid]
HTLV-1 IN strand transfer activity (No drug = 100) (recombinant HTLV-1 IN; Replicate 1): 88.4055%
HTLV-1 IN strand transfer activity (No drug = 100) (recombinant HTLV-1 IN; Replicate 2): 92.5212%
HTLV-1 IN strand transfer activity (No drug = 100) (recombinant HTLV-1 IN; Replicate 3): 100.53%

O=C(O)/C(O)=C/C(=O)c1cc(OCc2ccccc2)cc(OCc2ccccc2)c1 [XZ320, (Z)-4-(3,5-bis(benzyloxy)phenyl)-2-hydroxy-4-oxobut-2-enoic acid, reference compound]
HTLV-1 IN strand transfer activity (No drug = 100) (recombinant HTLV-1 IN; Replicate 1): 35.3455%
HTLV-1 IN strand transfer activity (No drug = 100) (recombinant HTLV-1 IN; Replicate 2): 62.3815%
HTLV-1 IN strand transfer activity (No drug = 100) (recombinant HTLV-1 IN; Replicate 3): 55.2426%

O=C(NCc1ccc(F)cc1F)c1c(O)c2cccnc2n(O)c1=O [XZ351, N-(2,4-difluorobenzyl)-1,4-dihydroxy-2-oxo-1,2-dihydro-1,8-naphthyridine-3-carboxamide]
HTLV-1 IN strand transfer activity (No drug = 100) (recombinant HTLV-1 IN; Replicate 1): 30.0691%
HTLV-1 IN strand transfer activity (No drug = 100) (recombinant HTLV-1 IN; Replicate 2): 57.1529%
HTLV-1 IN strand transfer activity (No drug = 100) (recombinant HTLV-1 IN; Replicate 3): 59.6295%

O=C(NCc1ccc(F)cc1F)c1c(NCCO)c2cccnc2n(O)c1=O [XZ378, N-(2,4-difluorobenzyl)-1-hydroxy-4-((2-hydroxyethyl)amino)-2-oxo-1,2-dihydro-1,8-naphthyridine-3-carboxamide]
HTLV-1 IN strand transfer activity (No drug = 100) (recombinant HTLV-1 IN; Replicate 1): 14.3053%
HTLV-1 IN strand transfer activity (No drug = 100) (recombinant HTLV-1 IN; Replicate 2): 44.0798%
HTLV-1 IN strand transfer activity (No drug = 100) (recombinant HTLV-1 IN; Replicate 3): 36.7031%
IC50 (recombinant HTLV-1 IN; [1]): 0.311 µM
IC50 (recombinant HTLV-1 IN; [2]): 0.474 µM
IC50 (recombinant HTLV-1 IN; [3]): 0.392 µM
IC50 compared with that of RAL (recombinant HTLV-1 IN): no significant improvement over RAL
inhibition of HTLV-1 IN in the screen compared with RAL (recombinant HTLV-1 IN; each compound at 634 nM): outperformed RAL
IC50 (recombinant HTLV-1 IN; [4]): 0.397 ± 0.064 µM

Nc1c(C(=O)NCc2ccc(F)cc2F)c(=O)n(O)c2nc(N3CCOCC3)ccc12 [XZ413, 4-amino-N-(2,4-difluorobenzyl)-1-hydroxy-7-morpholino-2-oxo-1,2-dihydro-1,8-naphthyridine-3-carboxamide]
HTLV-1 IN strand transfer activity (No drug = 100) (recombinant HTLV-1 IN; Replicate 1): 103.686%
HTLV-1 IN strand transfer activity (No drug = 100) (recombinant HTLV-1 IN; Replicate 2): 92.8191%
HTLV-1 IN strand transfer activity (No drug = 100) (recombinant HTLV-1 IN; Replicate 3): 81.1252%

Nc1c(C(=O)NCc2ccc(F)cc2F)c(=O)n(O)c2ncc(CCCCCO)cc12 [XZ419, 4-amino-N-(2,4-difluorobenzyl)-1-hydroxy-6-(5-hydroxypentyl)-2-oxo-1,2-dihydro-1,8-naphthyridine-3-carboxamide]
HTLV-1 IN strand transfer activity (No drug = 100) (recombinant HTLV-1 IN; Replicate 1): 14.8861%
HTLV-1 IN strand transfer activity (No drug = 100) (recombinant HTLV-1 IN; Replicate 2): 26.7311%
HTLV-1 IN strand transfer activity (No drug = 100) (recombinant HTLV-1 IN; Replicate 3): 21.3921%
IC50 (recombinant HTLV-1 IN; [1]): 0.173 µM
IC50 (recombinant HTLV-1 IN; [2]): 0.249 µM
IC50 (recombinant HTLV-1 IN; [3]): 0.269 µM
IC50 (recombinant HTLV-1 IN; [4]): 0.226 ± 0.021 µM
EC50 (HIV-1): 0.0013 ± 0.0002 µM

Nc1c(C(=O)NCc2ccc(F)cc2F)c(=O)n(O)c2ncc(-c3ccccc3)cc12 [XZ420, 4-amino-N-(2,4-difluorobenzyl)-1-hydroxy-2-oxo-6-phenyl-1,2-dihydro-1,8-naphthyridine-3-carboxamide]
HTLV-1 IN strand transfer activity (No drug = 100) (recombinant HTLV-1 IN; Replicate 1): 20.0015%
HTLV-1 IN strand transfer activity (No drug = 100) (recombinant HTLV-1 IN; Replicate 2): 29.6468%
HTLV-1 IN strand transfer activity (No drug = 100) (recombinant HTLV-1 IN; Replicate 3): 21.6983%
IC50 (recombinant HTLV-1 IN; [1]): 0.276 µM
IC50 (recombinant HTLV-1 IN; [2]): 0.499 µM
IC50 (recombinant HTLV-1 IN; [3]): 0.466 µM
IC50 compared with that of RAL (recombinant HTLV-1 IN): no significant improvement over RAL
IC50 (recombinant HTLV-1 IN; [4]): 0.411 ± 0.093 µM

Nc1c(C(=O)NCc2ccc(F)cc2F)c(=O)n(O)c2ncc(CCCCCCO)cc12 [XZ426, 4-amino-N-(2,4-difluorobenzyl)-1-hydroxy-6-(6-hydroxyhexyl)-2-oxo-1,2-dihydro-1,8-naphthyridine-3-carboxamide]
HTLV-1 IN strand transfer activity (No drug = 100) (recombinant HTLV-1 IN; Replicate 1): 14.449%
HTLV-1 IN strand transfer activity (No drug = 100) (recombinant HTLV-1 IN; Replicate 2): 19.5833%
HTLV-1 IN strand transfer activity (No drug = 100) (recombinant HTLV-1 IN; Replicate 3): 19.9322%
IC50 (recombinant HTLV-1 IN; [1]): 0.159 µM
IC50 (recombinant HTLV-1 IN; [2]): 0.169 µM
IC50 (recombinant HTLV-1 IN; [3]): 0.175 µM
IC50 (recombinant HTLV-1 IN; [4]): 0.163 ± 0.0279 µM
EC50 (HIV-1): 0.0023 ± 0.0006 µM

Nc1c(C(=O)NCc2ccc(F)cc2F)c(=O)n(O)c2ncc(CCCOCCO)cc12 [XZ432, 4-amino-N-(2,4-difluorobenzyl)-1-hydroxy-6-(3-(2-hydroxyethoxy)propyl)-2-oxo-1,2-dihydro-1,8-naphthyridine-3-carboxamide]
HTLV-1 IN strand transfer activity (No drug = 100) (recombinant HTLV-1 IN; Replicate 1): 18.6132%
HTLV-1 IN strand transfer activity (No drug = 100) (recombinant HTLV-1 IN; Replicate 2): 21.9961%
HTLV-1 IN strand transfer activity (No drug = 100) (recombinant HTLV-1 IN; Replicate 3): 19.5014%
IC50 (recombinant HTLV-1 IN; [1]): 0.177 µM
IC50 (recombinant HTLV-1 IN; [2]): 0.156 µM
IC50 (recombinant HTLV-1 IN; [3]): 0.173 µM
IC50 (recombinant HTLV-1 IN; [4]): 0.168 ± 0.017 µM

O=C(NCc1ccc(F)cc1F)c1c(NCCO)c2cc(CCCCCO)cnc2n(O)c1=O [XZ439, N-(2,4-difluorobenzyl)-1-hydroxy-4-((2-hydroxyethyl)amino)-6-(5-hydroxypentyl)-2-oxo-1,2-dihydro-1,8-naphthyridine-3-carboxamide]
HTLV-1 IN strand transfer activity (No drug = 100) (recombinant HTLV-1 IN; Replicate 1): 27.6089%
HTLV-1 IN strand transfer activity (No drug = 100) (recombinant HTLV-1 IN; Replicate 2): 29.3463%
HTLV-1 IN strand transfer activity (No drug = 100) (recombinant HTLV-1 IN; Replicate 3): 25.7676%
IC50 (recombinant HTLV-1 IN; [1]): 0.27 µM
IC50 (recombinant HTLV-1 IN; [2]): 0.239 µM
IC50 (recombinant HTLV-1 IN; [3]): 0.232 µM

CC(C)NC(=O)/C=C/c1cnc2c(c1)c(N)c(C(=O)NCc1ccc(F)cc1F)c(=O)n2O [XZ452, (E)-4-amino-N-(2,4-difluorobenzyl)-1-hydroxy-6-(3-(isopropylamino)-3-oxoprop-1-en-1-yl)-2-oxo-1,2-dihydro-1,8-naphthyridine-3-carboxamide]
HTLV-1 IN strand transfer activity (No drug = 100) (recombinant HTLV-1 IN; Replicate 1): 11.3751%
HTLV-1 IN strand transfer activity (No drug = 100) (recombinant HTLV-1 IN; Replicate 2): 23.2017%
HTLV-1 IN strand transfer activity (No drug = 100) (recombinant HTLV-1 IN; Replicate 3): 17.2877%
IC50 (recombinant HTLV-1 IN; [1]): 0.174 µM
IC50 (recombinant HTLV-1 IN; [2]): 0.162 µM
IC50 (recombinant HTLV-1 IN; [3]): 0.229 µM
IC50 (recombinant HTLV-1 IN; [4]): 0.182 ± 0.0447 µM

COC(=O)c1c(Nc2ccc(-c3ccc(N)cc3)cc2)c2cccnc2n(O)c1=O [XZ456, methyl 4-((4'-amino-[1,1'-biphenyl]-4-yl)amino)-1-hydroxy-2-oxo-1,2-dihydro-1,8-naphthyridine-3-carboxylate]
HTLV-1 IN strand transfer activity (No drug = 100) (recombinant HTLV-1 IN; Replicate 1): 112.032%
HTLV-1 IN strand transfer activity (No drug = 100) (recombinant HTLV-1 IN; Replicate 2): 94.791%
HTLV-1 IN strand transfer activity (No drug = 100) (recombinant HTLV-1 IN; Replicate 3): 89.3626%

Nc1ccc(-c2ccc(Nc3cc(=O)n(O)c4ncccc34)cc2)cc1 [XZ460, 4-((4'-amino-[1,1'-biphenyl]-4-yl)amino)-1-hydroxy-1,8-naphthyridin-2(1H)-one]
HTLV-1 IN strand transfer activity (No drug = 100) (recombinant HTLV-1 IN; Replicate 1): 91.7662%
HTLV-1 IN strand transfer activity (No drug = 100) (recombinant HTLV-1 IN; Replicate 2): 81.7265%
HTLV-1 IN strand transfer activity (No drug = 100) (recombinant HTLV-1 IN; Replicate 3): 81.1342%

COC(=O)c1c(N)c2cccnc2n(O)c1=O [XZ462, methyl 4-amino-1-hydroxy-2-oxo-1,2-dihydro-1,8-naphthyridine-3-carboxylate]
HTLV-1 IN strand transfer activity (No drug = 100) (recombinant HTLV-1 IN; Replicate 1): 111.483%
HTLV-1 IN strand transfer activity (No drug = 100) (recombinant HTLV-1 IN; Replicate 2): 96.7056%
HTLV-1 IN strand transfer activity (No drug = 100) (recombinant HTLV-1 IN; Replicate 3): 116.696%
